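Compound exposure: 48 hours, 5 concentrations, 96-well plates. At the GI50, growth is halved.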 Activity calls are given as the source filed them. No stated cut-off is given here; in the data, active = GI50 up to about 1.1 µM and inactive = higher.
Legend:
Experiment in all cases: DTP human tumour cell line panel, 48 h
[1] = system: 786-0
[2] = system: A549
[3] = system: ACHN
[4] = system: BT-549
[5] = system: CCRF-CEM
[6] = system: COLO 205
[7] = system: DU-145
[8] = system: EKVX
[9] = system: HCC 2998
[10] = system: HCT-116
[11] = system: HCT-15
[12] = system: HOP-62
[13] = system: HOP-92
[14] = system: HT-29
[15] = system: Hs-578T
[16] = system: IGROV-1
[17] = system: KM12
[18] = system: LOX IMVI
[19] = system: M14
[20] = system: MCF7
[21] = system: MDA-MB-231
[22] = system: MDA-MB-435
[23] = system: MDA-N
[24] = system: MOLT-4
[25] = system: Malme-3M
[26] = system: NCI-H226
[27] = system: NCI-H23
[28] = system: NCI-H460
[29] = system: NCI-H522
[30] = system: NCI/ADR-RES
[31] = system: OVCAR-3
[32] = system: OVCAR-4
[33] = system: OVCAR-5
[34] = system: OVCAR-8
[35] = system: PC-3
[36] = system: RPMI-8226
[37] = system: SF-268
[38] = system: SF-295
[39] = system: SK-MEL-28
[40] = system: SK-MEL-2
[41] = system: SK-MEL-5
[42] = system: SK-OV-3
[43] = system: SN12C
[44] = system: SNB-19
[45] = system: SNB-75
[46] = system: SR
[47] = system: SW-620
[48] = system: T47D
[49] = system: TK-10
[50] = system: U-251
[51] = system: UACC-62
[52] = system: UO-31
[53] = system: A498
[54] = system: CAKI-1
[55] = system: HL-60
[56] = system: K562
[57] = system: RXF 393
[58] = system: SF-539
[59] = system: UACC-257

SMILES: S=C(Nc1ccc2c(c1)oc1ccccc12)c1cccnc1
- GI50 [1]: 35.3 µM (inactive)
- GI50 [2]: 37.6 µM (inactive)
- GI50 [3]: 29.2 µM (inactive)
- GI50 [4]: 37.1 µM (inactive)
- GI50 [5]: > 100 µM (inactive)
- GI50 [6]: > 100 µM (inactive)
- GI50 [7]: > 100 µM (inactive)
- GI50 [8]: 65.9 µM (inactive)
- GI50 [9]: > 100 µM (inactive)
- GI50 [10]: 85.7 µM (inactive)
- GI50 [11]: > 100 µM
- GI50 [12]: 17.1 µM (inactive)
- GI50 [13]: 25.3 µM (inactive)
- GI50 [14]: > 100 µM (inactive)
- GI50 [15]: > 10 µM (inactive)
- GI50 [16]: 41.1 µM (inactive)
- GI50 [17]: > 100 µM (inactive)
- GI50 [18]: > 100 µM (inactive)
- GI50 [19]: > 100 µM (inactive)
- GI50 [20]: 40.9 µM (inactive)
- GI50 [21]: > 100 µM (inactive)
- GI50 [22]: > 100 µM (inactive)
- GI50 [23]: > 100 µM (inactive)
- GI50 [24]: > 100 µM (inactive)
- GI50 [25]: > 100 µM (inactive)
- GI50 [26]: 24.3 µM (inactive)
- GI50 [27]: 24.5 µM (inactive)
- GI50 [28]: 24.6 µM (inactive)
- GI50 [29]: 22 µM (inactive)
- GI50 [30]: 25.1 µM (inactive)
- GI50 [31]: 22 µM (inactive)
- GI50 [32]: 33.7 µM (inactive)
- GI50 [33]: 55.8 µM (inactive)
- GI50 [34]: 26.2 µM (inactive)
- GI50 [35]: 55.3 µM (inactive)
- GI50 [36]: > 100 µM (inactive)
- GI50 [37]: 29.5 µM (inactive)
- GI50 [38]: 29.9 µM (inactive)
- GI50 [39]: > 100 µM (inactive)
- GI50 [40]: 30.5 µM (inactive)
- GI50 [41]: 70.8 µM (inactive)
- GI50 [42]: 20.4 µM (inactive)
- GI50 [43]: > 100 µM (inactive)
- GI50 [44]: 21.3 µM (inactive)
- GI50 [45]: 21.2 µM (inactive)
- GI50 [46]: > 100 µM (inactive)
- GI50 [47]: > 100 µM (inactive)
- GI50 [48]: 30.5 µM (inactive)
- GI50 [49]: 30.5 µM (inactive)
- GI50 [50]: 21.6 µM (inactive)
- GI50 [51]: 39.5 µM (inactive)
- GI50 [52]: 22.7 µM (inactive)

SMILES: COC1C(O)=C2C(=O)OC(C)(O)/C=C/C=C\C=C/C=C/C(c3ccccc3)NC(=O)/C=C/C=C/C=C/C=C/C2(C)C1O (stereo not given)
- GI50 [1]: 0.00787 µM (active)
- GI50 [53]: 0.0137 µM (active)
- GI50 [2]: 0.00105 µM (active)
- GI50 [3]: 0.00488 µM (active)
- GI50 [4]: 0.0128 µM (active)
- GI50 [54]: 0.0175 µM (active)
- GI50 [5]: 0.383 µM (active)
- GI50 [6]: 0.00124 µM (active)
- GI50 [7]: 0.00533 µM (active)
- GI50 [8]: 0.0118 µM (active)
- GI50 [9]: 0.0122 µM (active)
- GI50 [10]: 0.00403 µM (active)
- GI50 [11]: < 0.001 µM
- GI50 [55]: 0.00348 µM (active)
- GI50 [12]: 0.0121 µM (active)
- GI50 [13]: 0.00146 µM (active)
- GI50 [14]: < 0.001 µM (active)
- GI50 [15]: 0.0419 µM (active)
- GI50 [16]: 0.0165 µM (active)
- GI50 [56]: 0.248 µM (active)
- GI50 [17]: 0.00679 µM (active)
- GI50 [18]: 0.00838 µM (active)
- GI50 [19]: 0.0792 µM (active)
- GI50 [20]: 0.001 µM (active)
- GI50 [21]: 0.0101 µM (active)
- GI50 [22]: 0.0193 µM (active)
- GI50 [23]: 0.0275 µM (active)
- GI50 [24]: 0.0102 µM (active)
- GI50 [25]: 0.0101 µM (active)
- GI50 [26]: 0.00646 µM (active)
- GI50 [27]: 0.0158 µM (active)
- GI50 [28]: < 0.001 µM (active)
- GI50 [29]: < 0.001 µM (active)
- GI50 [30]: 0.00861 µM (active)
- GI50 [31]: 0.0445 µM (active)
- GI50 [32]: 0.0678 µM (active)
- GI50 [33]: 0.129 µM (active)
- GI50 [34]: 0.0034 µM (active)
- GI50 [35]: 0.00339 µM (active)
- GI50 [36]: 0.0111 µM (active)
- GI50 [57]: 0.0184 µM (active)
- GI50 [37]: 0.0171 µM (active)
- GI50 [38]: 0.0111 µM (active)
- GI50 [58]: 0.0179 µM (active)
- GI50 [39]: 0.0461 µM (active)
- GI50 [40]: 0.0361 µM (active)
- GI50 [41]: 0.0356 µM (active)
- GI50 [42]: 0.0253 µM (active)
- GI50 [43]: 0.0142 µM (active)
- GI50 [44]: 0.0258 µM (active)
- GI50 [45]: 0.028 µM (active)
- GI50 [47]: 0.00139 µM (active)
- GI50 [48]: 0.0152 µM (active)
- GI50 [49]: 0.00871 µM (active)
- GI50 [50]: 0.00522 µM (active)
- GI50 [59]: 0.0363 µM (active)
- GI50 [51]: 0.114 µM (active)
- GI50 [52]: 0.00984 µM (active)

SMILES: Cc1cc(C)c(-n2[nH]c(=O)n(C)c2=O)c(C)c1
- GI50 [1]: > 100 µM (inactive)
- GI50 [53]: > 100 µM (inactive)
- GI50 [2]: > 100 µM (inactive)
- GI50 [4]: > 100 µM (inactive)
- GI50 [54]: > 100 µM (inactive)
- GI50 [5]: > 100 µM (inactive)
- GI50 [6]: > 100 µM (inactive)
- GI50 [7]: > 100 µM (inactive)
- GI50 [8]: > 100 µM (inactive)
- GI50 [9]: > 100 µM (inactive)
- GI50 [10]: > 100 µM (inactive)
- GI50 [11]: > 100 µM
- GI50 [55]: > 100 µM (inactive)
- GI50 [14]: > 100 µM (inactive)
- GI50 [15]: > 100 µM (inactive)
- GI50 [16]: > 100 µM (inactive)
- GI50 [56]: > 100 µM (inactive)
- GI50 [17]: > 100 µM (inactive)
- GI50 [18]: > 100 µM (inactive)
- GI50 [19]: > 100 µM (inactive)
- GI50 [20]: > 100 µM (inactive)
- GI50 [21]: > 100 µM (inactive)
- GI50 [22]: > 100 µM (inactive)
- GI50 [23]: > 100 µM (inactive)
- GI50 [24]: > 100 µM (inactive)
- GI50 [25]: > 100 µM (inactive)
- GI50 [26]: > 100 µM (inactive)
- GI50 [27]: > 100 µM (inactive)
- GI50 [28]: > 100 µM (inactive)
- GI50 [29]: > 100 µM (inactive)
- GI50 [30]: > 100 µM (inactive)
- GI50 [31]: > 100 µM (inactive)
- GI50 [32]: > 100 µM (inactive)
- GI50 [33]: > 100 µM (inactive)
- GI50 [34]: > 100 µM (inactive)
- GI50 [35]: > 100 µM (inactive)
- GI50 [36]: > 100 µM (inactive)
- GI50 [57]: > 100 µM (inactive)
- GI50 [37]: > 100 µM (inactive)
- GI50 [58]: > 100 µM (inactive)
- GI50 [39]: > 100 µM (inactive)
- GI50 [40]: > 100 µM (inactive)
- GI50 [41]: > 100 µM (inactive)
- GI50 [42]: > 100 µM (inactive)
- GI50 [43]: > 100 µM (inactive)
- GI50 [44]: > 100 µM (inactive)
- GI50 [45]: > 100 µM (inactive)
- GI50 [46]: > 100 µM (inactive)
- GI50 [47]: > 100 µM (inactive)
- GI50 [48]: > 100 µM (inactive)
- GI50 [49]: > 100 µM (inactive)
- GI50 [50]: > 100 µM (inactive)
- GI50 [59]: > 100 µM (inactive)
- GI50 [51]: > 100 µM (inactive)
- GI50 [52]: > 100 µM (inactive)

From ChEMBL document CHEMBL1201862, “PubChem BioAssay data set” (2004)
